Patent US20250109381A1, “COMPOSITION FOR CULTRING NK CELLS, COMPRISING ALLOFERON, AND METHOD FOR CULTURING NK CELLS USING SAME” (NK MEDICS INC., priority 2022, published 2025)

Experiments:
NK cells [1] = assay: Cell proliferation assay (incorporation of [3H]-thymidine), NK cell culture with added alloferon; assay type: cell-based, human; conditions: 0.1 to 100 mg/L tested, cultured 21 days, FIG. 3
Method: 30 ml of blood was collected from a human blood donor, RosetteSep NK enrichment antibody cocktail (50 ul/ml) was added thereto, and then diluted 1:1 v/v with phosphate buffer solution (PBS). The blood was centrifuged at 1600 rpm for 20 minutes using a density gradient centrifugation (Ficoll-Plaque) to separate the cell layer containing NK cells. The process of washing and centrifuging this with PBS was repeated twice. Then, the number of cells was counted by staining with trypan blue, and the average number of cells obtained was 1.6˜3.0×10^5 cell/ml, and the cells were cultured in NK cell culture medium.
The NK cell culture medium used was a combination of various substances that were conventionally known to be necessary for NK culture. […] This was used as the NK cell culture medium of Example 1, to which alloferon was further mixed and used at 0.1 to 100 mg/L as needed. […]
Specifically, NK cells (1×10^5 cells/ml) were placed in 96-well plates, and then treated with 10 mg/L each of alloferons 1 to 4 in the NK cell culture medium of Example 1, and then cultured in an environment at 5% CO2, 37° C. for 48 hours or 21 days. […] After that, the radioactivity was measured using 1450 MicroBeta TriLux (PerkinElmer Life and Analytical Sciences).

NK cells [2] = assay: NK cell increase rate by flow cytometry (FACS, CD3-FITC/CD56-PE); assay type: cell-based, human; conditions: for NK (share of cells by FACS), Table 3 / NKT (share of cells by FACS), Table 3: 10 mg/L in NK cell culture medium of Example 1, 21 days
Method: Flow Cytometry (FACS analysis) analysis was performed to confirm the NK cell increase rate. Specifically, NK cells were cultured for 21 days in a medium containing 10 mg/L each of Test Example 1, Example 1 (untreated), and Alloferon 1 to 4 in Example 1. Cells before and after culture were collected by centrifugation at 1,400 rpm for 5minutes, and the collected cells were washed twice using PBS. Then, the cells were suspended in 1 ml of PBS, and the number of living cells was measured through Trypan blue staining. The cells were dispensed into FACS tubes at 1×10^6 cells/tube, and 2 ml of PBS was added. Then, centrifugation was performed at 400 g and 4° C. for 5 minutes, and the supernatant excluding cells was removed. 100 μl of 1% albumin was added to the remaining cell pellet, and antibodies were added and mixed with PBS. NK cells were treated with antibodies (CD3-FITC, CD56-PE), reacted in a light shielding state for 30 minutes, and then the cells were washed twice with PBS. NK cells were suspended in an appropriate amount of PBS, and then the data were compared and analyzed using FACSVerse (BD Biosciences, San Diego, CA, USA).

NK cells [3] = assay: IFN-gamma secretion of NK cells (Human IFN-y ELISA); assay type: cell-based; conditions: with IL-2 10 mg/L in typical medium, 48 hours; for IFN-r, Table 6: alloferon 100 mg/L
Method: IFN-r is an indicator of the activity of NK cells, and it is considered as the secretion amount is higher, the cytotoxicity is higher and the differentiation ability increases.
IFN-y secreted from NK cells was measured in the culture medium in which the cells were cultured, using a Human IFN-y ELISA kit (BD Biosciences, San Diego, CA, USA). 100 μl of capture antibody diluted in coating buffer was added to each well of a 96-well plate for ELISA, then sealed and left overnight at 4° C. It was washed three times using wash buffer, and all remaining buffer was removed. 200 μl of assay diluent was added to each well and reacted at room temperature for 1 hour for blocking. It was washed again three times using wash buffer, and all remaining buffer was removed. 100 μl of each prepared IFN-y standard and culture supernatants were added, the plate was sealed, and the reaction was performed at room temperature for 2 hours. It was washed 5 times using wash buffer, and all remaining buffer was removed. 100 μl of Working detector (Detection Antibody+SAv-HRP reagent) was added to each well, the plate was sealed, and reaction was performed at room temperature for 1 hour. It was washed 7 times using wash buffer, and all remaining buffer was removed. 100 μl of Substrate solution was added to each well and the reaction was performed at room temperature while shielding light for 30 minutes. 50 μl of Stop solution was added to each well, and the absorbance was measured at 450 nm within 30 minutes.

NK cells [4] = assay: NK cell activation receptor (NKp30, NKp44, NKp46) and perforin expression by FACS; assay type: cell-based, human; conditions: for NKp30 expression / NKp44 expression / NKp46 expression / Perforin expression: NK cells proliferated 21 days, 10 mg/L in NK medium
Method: Based on the results of Test Example 3, receptor expression was confirmed and compared to measure the activity of NK cells. Specifically, as in Test Example 3, NK cells were cultured in each medium, and in order to measure the activity of NK cells proliferated for 21 days, the proliferated NK cells were isolated by flow cytometry. The expression of activating markers for these cells was further confirmed. The cultured NK cells were washed twice using PBS, then dispensed into a FACS tube at 1×10^6 cells/tube, and 2 ml of PBS was added. Then, centrifugation was performed at 400 g and 4° C. for 5 minutes, and the supernatant excluding cells was removed. 100 μl of 1% albumin was added to the remaining cell pellet, sorted using antibodies (CD3-FITC, CD56-PE) together with PBS, and then isolated according to surface markers. In addition to the isolated cells, NK cells were treated with antibodies (Anti-NKp30, anti-NKp44, anti NKp46, and Perforin) to confirm the expression of activating receptors (NKp30, NKp44, NKp46) and Perforin on the surface of NK cells, and reacted in a light shielding state for 30 minutes, and the cells were washed twice again using PBS. NK cells were suspended in an appropriate amount of PBS, and the data were compared and analyzed using FACS AriaII (BD Biosciences, San Diego, CA, USA).

NK cells [5] = assay: Co-treatment of alloferon and other interleukins, NK cell proliferation; assay type: cell-based, human; conditions: only alloferon 1 added at 10 mg/L, 21 days, FIG. 4
Method: Specifically, NK cells (1×10^5 cells/ml) were placed in 96-well plates, and then treated with 10 mg/L each of alloferons 1 to 4 in the NK cell culture medium of Example 1, and then cultured in an environment at 5% CO2, 37° C. for 48 hours or 21 days. After the culture, [^3H]-thymidine (37 mBq) was added at 0.2 μCi per well and cultured for 8 hours. Both cells and medium were transferred to a glass fiber filter (size 90.120 mm; Wallac, Turkr, Finland) using a 96-well harvester. After drying the filter, a scintillator sheet (Meltilex, Wallac) was melted to coat the filter. After that, the radioactivity was measured using 1450 MicroBeta TriLux (PerkinElmer Life and Analytical Sciences).
In order to identify factors that imparts the influence other than alloferon during NK cell culture, the NK cell proliferation effect was confirmed after co-treatment with various combinations of interleukins. Except for the medium composition, the NK cell culture method was the same as in Test Example 1, and the cells were cultured for 21 days (*** random period).

[6] = after culture (day 21), 10 mg/L in NK cell culture medium of Example 1

| Sequence | NK (share of cells by FACS), Table 3 (NK cells [2]) [%] | NKT (share of cells by FACS), Table 3 (NK cells [2]) [%] | IFN-r, Table 6 (NK cells [3]) [µg/L] | NKp30 expression (NK cells [4]) [%] | NKp44 expression (NK cells [4]) [%] | NKp46 expression (NK cells [4]) [%] | Perforin expression (NK cells [4]) [%] | further results |
| --- | --- | --- | --- | --- | --- | --- | --- | --- |
| HGVSGHGQHGVHG (engineered from known peptides) [Alloferon 1] | 74.7 | 6.5 | 6.32 | 57.4 | 60.3 | 88.4 | 99.8 | concentration at which the maximum amount of NK cells was reached (NK cells [1]): 10 mg/L; increase in number of NK cells compared to typical medium (RPMI) (NK cells [2]; 10 mg/L, day 0 to day 21): 1,430 times; increase of NK cells (NK cells [2]; 10 mg/L, day 0 to day 21): 8,790 fold; increase of NKT cells (NK cells [2]; 10 mg/L, day 0 to day 21): 560 fold; NK (share of cells by FACS) (NK cells [2]; [6]): 74.7%; NKT (share of cells by FACS) (NK cells [2]; [6]): 6.5%; NK (share of cells by FACS) (NK cells [2]; before culture (day 0)): 12.2%; NKT (share of cells by FACS) (NK cells [2]; before culture (day 0)): 1.7%; IFN-r (NK cells [3]; alloferon 1 0.1 mg/L): 0.13 µg/L; IFN-r (NK cells [3]; alloferon 1 5 mg/L): 1.82 µg/L; IFN-r (NK cells [3]; alloferon 1 10 mg/L): 2.33 µg/L; IFN-r (NK cells [3]; alloferon 1 50 mg/L): 4.86 µg/L; IFN-r (NK cells [3]; alloferon 1 100 mg/L): 6.32 µg/L; NK activity versus typical medium or NK cell culture medium of Example 1 (NK cells [4]; 21 days culture, FIG. 6 / Table 4): higher NK activity; NK cell proliferation (NK cells [5]): NK cell proliferation was induced |
| SGHGQHGV (engineered from known peptides) [Alloferon 3] | 69.7 | 13.2 | 3.31 | 47.8 | 51.3 | 69.1 | 90.4 |  |
| VSGHGQHGVH (engineered from known peptides) [Alloferon 4] | 71.5 | 8.4 | 5.84 | 61.1 | 68.2 | 82.5 | 99.8 |  |
| GVSGHGQHGVHG (engineered from known peptides) [Alloferon 2] | 73.8 | 12.4 | 4.87 | 53.2 | 50.9 | 78.6 | 99.9 |  |
